Reference: patent publication US7612064B2, “Sulfopyrroles” (Takeda Pharmaceutical Company Limited, priority 2003, dated 2009)
One block for each molecule: values may come before it.

Experiments:
HeLa = test: MTS proliferation assay; assay type: cell-based, human; details: 72 h
Protocol: (§1) The assay is performed in 96 well tissue culture plates. […] The test compounds are added in 20 μl complete medium containing max 5% DMSO. The final compound concentrations in the assays are 10 μM, 3 μM, 1 μM and 0.3 μM, respectively. The assay plates are incubated for 72 h at culture conditions. The MTS reagent is prepared according to the manufacturer's protocol (Promega G1111). 20 μl MTS reagent are added to each well, the assay plates are quickly spun and incubated for another 3 h at culture conditions. Subsequently, the plates are shortly shacked and absorption measured with a microplate-reader at 492 nm.

MRC5 = test: MTS proliferation assay; assay type: cell-based; details: MRC5, 72 h
Protocol: as §1

[1] = Hoechst 33342 nuclear staining; assay type: cell-based; details: for Hoechst 33342 nuclear staining score, HeLa: HeLa cells; for Hoechst 33342 nuclear staining score, Jurkat: Jurkat cells; for Hoechst 33342 nuclear staining score, H460: H460 cells; for Hoechst 33342 nuclear staining score, Jily: Jily cells; for Hoechst 33342 nuclear staining score, MRC5: MRC5 cells;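 on all read-outs here: apoptotic nuclei scored 0 none 1 weak under 50% of cells 2 strong over 50% of cells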
Protocol: This assay is performed in 96 well tissue culture plates. Appropriate number of cells (adherent cells: 3-5*10^3, suspension cells: 8-10*10^3) are being seeded out in 80 μl complete medium. Adherent cells are incubated for 24 h for proper spreading out before addition of test compounds while suspension cells are immediately treated with test compounds after seeding out. The test compounds are added in 20 μl complete medium containing max 5% DMSO. […] […] The assay plates are then further incubated for 30 min and subsequently analyzed with a standard inverted fluorescence microscope.
The readout allows the determination of the fraction of apoptotic nuclei as well as other morphological criteria specific for apoptosis as a function of the treatment. The following scores are used: 0 relating to no activity, 1 relating to weak activity comprising less than 50% of the cells and score 2 relating to strong activity comprising more than 50% of the cells.

[2] = conc 0.3 (final concentrations in μM), 24 h or 48 h incubation
[3] = conc 1 (final concentrations in μM), 24 h or 48 h incubation
[4] = conc 3 (final concentrations in μM), 24 h or 48 h incubation
[5] = conc 10 (final concentrations in μM), 24 h or 48 h incubation
[6] = conc 0.1 (final concentrations in μM), 24 h or 48 h incubation

SMILES: CCN(Cc1cc(-c2cccs2)n(S(=O)(=O)c2ccc(C)cc2)c1)c1ccc(OC)cc1OC [Example 1, 4(N-2,4-Dimethoxyphenyl-N-ethylaminomethyl)-2-(2-thienyl)-1-(p-toluene-sulfonyl)-pyrrole]
- IC50 (HeLa): > 1 µM
- IC50 (MRC5): > 1 µM

- IC50 (HeLa): > 1 µM
SMILES: Cc1ccc(S(=O)(=O)n2cc(CNc3ccccn3)cc2-c2ccc3c(c2)OCO3)cc1 [Example 44]
- IC50 (MRC5): > 1 µM
- Hoechst 33342 nuclear staining score, HeLa [1, 2]: 0
- Hoechst 33342 nuclear staining score, HeLa [1, 3]: 0
- Hoechst 33342 nuclear staining score, HeLa [1, 4]: 0
- Hoechst 33342 nuclear staining score, HeLa [1, 5]: 2 (strong activity comprising more than 50% of the cells)
- Hoechst 33342 nuclear staining score, Jurkat [1, 2]: 0
- Hoechst 33342 nuclear staining score, Jurkat [1, 3]: 0
- Hoechst 33342 nuclear staining score, Jurkat [1, 4]: 0
- Hoechst 33342 nuclear staining score, Jurkat [1, 5]: 2 (strong activity comprising more than 50% of the cells)

SMILES: Cc1ccc(S(=O)(=O)n2cc(CNCCCN(C)C)cc2-c2ccc3c(c2)OCO3)cc1.Cl.Cl [2 × 2HCl]
- Hoechst 33342 nuclear staining score, HeLa [1, 6]: 0
- Hoechst 33342 nuclear staining score, HeLa [1, 2]: 0
- Hoechst 33342 nuclear staining score, HeLa [1, 3]: 0
- Hoechst 33342 nuclear staining score, HeLa [1, 4]: 0
- Hoechst 33342 nuclear staining score, Jurkat [1, 6]: 0
- Hoechst 33342 nuclear staining score, Jurkat [1, 2]: 0
- Hoechst 33342 nuclear staining score, Jurkat [1, 3]: 0
- Hoechst 33342 nuclear staining score, Jurkat [1, 4]: 0

- IC50 (HeLa): > 1 µM
SMILES: Cc1ccc(S(=O)(=O)n2cc(CNc3ccc(CN4CCOCC4)cc3)cc2-c2ccc3c(c2)OCO3)cc1 [Example 41]
- IC50 (MRC5): > 1 µM
- Hoechst 33342 nuclear staining score, HeLa [1, 2]: 0
- Hoechst 33342 nuclear staining score, HeLa [1, 3]: 0
- Hoechst 33342 nuclear staining score, HeLa [1, 4]: 0
- Hoechst 33342 nuclear staining score, HeLa [1, 5]: 0
- Hoechst 33342 nuclear staining score, Jurkat [1, 2]: 0
- Hoechst 33342 nuclear staining score, Jurkat [1, 3]: 0
- Hoechst 33342 nuclear staining score, Jurkat [1, 4]: 0
- Hoechst 33342 nuclear staining score, Jurkat [1, 5]: 0

- IC50 (HeLa): > 1 µM
SMILES: Cc1ccc(S(=O)(=O)n2cc(CNc3ccc(S(N)(=O)=O)cc3)cc2-c2ccc3c(c2)OCO3)cc1 [Example 45]
- IC50 (MRC5): > 1 µM
- Hoechst 33342 nuclear staining score, HeLa [1, 2]: 0
- Hoechst 33342 nuclear staining score, HeLa [1, 3]: 0
- Hoechst 33342 nuclear staining score, HeLa [1, 4]: 0
- Hoechst 33342 nuclear staining score, HeLa [1, 5]: 1 (weak activity comprising less than 50% of the cells)
- Hoechst 33342 nuclear staining score, Jurkat [1, 2]: 0
- Hoechst 33342 nuclear staining score, Jurkat [1, 3]: 0
- Hoechst 33342 nuclear staining score, Jurkat [1, 4]: 0
- Hoechst 33342 nuclear staining score, Jurkat [1, 5]: 2 (strong activity comprising more than 50% of the cells)

SMILES: Cc1ccc(S(=O)(=O)n2cc(CNc3ccc(N4CCOCC4)cc3)cc2-c2cccs2)cc1 [Example 9]
- IC50 (HeLa): > 1 µM
- Hoechst 33342 nuclear staining score, HeLa [1, 6]: 0
- Hoechst 33342 nuclear staining score, HeLa [1, 2]: 0
- Hoechst 33342 nuclear staining score, HeLa [1, 3]: 0
- Hoechst 33342 nuclear staining score, HeLa [1, 4]: 1 (weak activity comprising less than 50% of the cells)
- Hoechst 33342 nuclear staining score, Jurkat [1, 6]: 0
- Hoechst 33342 nuclear staining score, Jurkat [1, 2]: 0
- Hoechst 33342 nuclear staining score, Jurkat [1, 3]: 0
- Hoechst 33342 nuclear staining score, Jurkat [1, 4]: 2 (strong activity comprising more than 50% of the cells)

SMILES: Cc1ccc(S(=O)(=O)n2cc(CNCCCc3ccccc3)cc2-c2ccc3c(c2)OCO3)cc1 [Example 10]
- IC50 (HeLa): > 1 µM
- IC50 (MRC5): > 1 µM
- Hoechst 33342 nuclear staining score, HeLa [1, 6]: 0
- Hoechst 33342 nuclear staining score, HeLa [1, 2]: 0
- Hoechst 33342 nuclear staining score, HeLa [1, 3]: 0
- Hoechst 33342 nuclear staining score, HeLa [1, 4]: 0
- Hoechst 33342 nuclear staining score, Jurkat [1, 6]: 0
- Hoechst 33342 nuclear staining score, Jurkat [1, 2]: 0
- Hoechst 33342 nuclear staining score, Jurkat [1, 3]: 0
- Hoechst 33342 nuclear staining score, Jurkat [1, 4]: 0

SMILES: COc1cc(-c2cc(-c3cncc(CN(C)C)c3)cn2S(=O)(=O)c2ccc(C)cc2)cc(OC)c1OC [Example 59]
- IC50 (HeLa): > 1 µM
- IC50 (MRC5): > 1 µM
- Hoechst 33342 nuclear staining score, H460 ([1]; conc 0.1): 0
- Hoechst 33342 nuclear staining score, H460 ([1]; conc 0.3): 0
- Hoechst 33342 nuclear staining score, H460 ([1]; conc 1): 0
- Hoechst 33342 nuclear staining score, H460 ([1]; conc 3): 2 (strong activity comprising more than 50% of the cells)
- Hoechst 33342 nuclear staining score, HeLa ([1]; conc 0.1): 0
- Hoechst 33342 nuclear staining score, HeLa ([1]; conc 0.3): 0
- Hoechst 33342 nuclear staining score, HeLa ([1]; conc 1): 0
- Hoechst 33342 nuclear staining score, HeLa ([1]; conc 3): 0
- Hoechst 33342 nuclear staining score, Jily ([1]; conc 0.1): 0
- Hoechst 33342 nuclear staining score, Jily ([1]; conc 0.3): 0
- Hoechst 33342 nuclear staining score, Jily ([1]; conc 1): 0
- Hoechst 33342 nuclear staining score, Jily ([1]; conc 3): 0
- Hoechst 33342 nuclear staining score, Jurkat ([1]; conc 0.1): 0
- Hoechst 33342 nuclear staining score, Jurkat ([1]; conc 0.3): 0
- Hoechst 33342 nuclear staining score, Jurkat ([1]; conc 1): 0
- Hoechst 33342 nuclear staining score, Jurkat ([1]; conc 3): 2 (strong activity comprising more than 50% of the cells)
- Hoechst 33342 nuclear staining score, MRC5 ([1]; conc 0.1): 0
- Hoechst 33342 nuclear staining score, MRC5 ([1]; conc 0.3): 0
- Hoechst 33342 nuclear staining score, MRC5 ([1]; conc 1): 0
- Hoechst 33342 nuclear staining score, MRC5 ([1]; conc 3): 0
- Hoechst 33342 nuclear staining score, PBLs ([1]; conc 0.1): 0
- Hoechst 33342 nuclear staining score, PBLs ([1]; conc 0.3): 0
- Hoechst 33342 nuclear staining score, PBLs ([1]; conc 1): 0
- Hoechst 33342 nuclear staining score, PBLs ([1]; conc 3): 0

SMILES: Cc1ccc(S(=O)(=O)n2cc(CNCCc3ccccc3)cc2-c2cccs2)cc1 [Example 7]
- IC50 (HeLa): > 1 µM
- Hoechst 33342 nuclear staining score, HeLa [1, 6]: 0
- Hoechst 33342 nuclear staining score, HeLa [1, 2]: 0
- Hoechst 33342 nuclear staining score, HeLa [1, 3]: 0
- Hoechst 33342 nuclear staining score, HeLa [1, 4]: 0
- Hoechst 33342 nuclear staining score, Jurkat [1, 6]: 0
- Hoechst 33342 nuclear staining score, Jurkat [1, 2]: 0
- Hoechst 33342 nuclear staining score, Jurkat [1, 3]: 0
- Hoechst 33342 nuclear staining score, Jurkat [1, 4]: 0

SMILES: Cc1ccc(S(=O)(=O)n2cc(CNCCCN3CCN(C)CC3)cc2-c2ccc3c(c2)OCO3)cc1.Cl.Cl [Example 13]
- Hoechst 33342 nuclear staining score, HeLa [1, 6]: 0
- Hoechst 33342 nuclear staining score, HeLa [1, 2]: 0
- Hoechst 33342 nuclear staining score, HeLa [1, 3]: 0
- Hoechst 33342 nuclear staining score, HeLa [1, 4]: 0
- Hoechst 33342 nuclear staining score, Jurkat [1, 6]: 0
- Hoechst 33342 nuclear staining score, Jurkat [1, 2]: 0
- Hoechst 33342 nuclear staining score, Jurkat [1, 3]: 0
- Hoechst 33342 nuclear staining score, Jurkat [1, 4]: 0

SMILES: Cc1ccc(S(=O)(=O)n2cc(CNCCc3ccccc3)cc2-c2ccc3c(c2)OCO3)cc1 [Example 43]
- IC50 (HeLa): > 1 µM
- IC50 (MRC5): > 1 µM
- Hoechst 33342 nuclear staining score, HeLa [1, 2]: 0
- Hoechst 33342 nuclear staining score, HeLa [1, 3]: 0
- Hoechst 33342 nuclear staining score, HeLa [1, 4]: 0
- Hoechst 33342 nuclear staining score, HeLa [1, 5]: 0
- Hoechst 33342 nuclear staining score, Jurkat [1, 2]: 0
- Hoechst 33342 nuclear staining score, Jurkat [1, 3]: 0
- Hoechst 33342 nuclear staining score, Jurkat [1, 4]: 0
- Hoechst 33342 nuclear staining score, Jurkat [1, 5]: 0

SMILES: COc1ccc(CCNCc2cc(-c3ccc4c(c3)OCO4)n(S(=O)(=O)c3ccc(C)cc3)c2)cc1 [Example 11]
- IC50 (HeLa): > 1 µM
- Hoechst 33342 nuclear staining score, HeLa [1, 6]: 0
- Hoechst 33342 nuclear staining score, HeLa [1, 2]: 0
- Hoechst 33342 nuclear staining score, HeLa [1, 3]: 0
- Hoechst 33342 nuclear staining score, HeLa [1, 4]: 0
- Hoechst 33342 nuclear staining score, Jurkat [1, 6]: 0
- Hoechst 33342 nuclear staining score, Jurkat [1, 2]: 0
- Hoechst 33342 nuclear staining score, Jurkat [1, 3]: 0
- Hoechst 33342 nuclear staining score, Jurkat [1, 4]: 0

- IC50 (HeLa; Homo sapiens): > 1 µM
SMILES: Cc1ccc(S(=O)(=O)n2cc(CNCCCN(C)C)cc2-c2ccc3c(c2)OCO3)cc1 [Example 2, 4-(N-[3-Dimethylaminopropyl]-aminomethyl)-2-(3,4-methylenedioxyphenyl)-1-(p-toluenesulfonyl)-pyrrole]
- IC50 (MRC5; Homo sapiens): > 1 µM
- Hoechst 33342 nuclear staining score, HeLa [1, 6]: 0
- Hoechst 33342 nuclear staining score, HeLa [1, 2]: 0
- Hoechst 33342 nuclear staining score, HeLa [1, 3]: 0
- Hoechst 33342 nuclear staining score, HeLa [1, 4]: 0
- Hoechst 33342 nuclear staining score, Jurkat [1, 6]: 0
- Hoechst 33342 nuclear staining score, Jurkat [1, 2]: 0
- Hoechst 33342 nuclear staining score, Jurkat [1, 3]: 0
- Hoechst 33342 nuclear staining score, Jurkat [1, 4]: 0
